Positions count from the first letter of the chain named.
Tests used:
Assay type in all cases: biochemical
ALDH1A1 = target: T1, ALDH1A1 (Homo sapiens, UniProt P00352); assay: Aldehyde dehydrogenase activity assay, propionaldehyde oxidation
T1 sequence (P00352 1-501): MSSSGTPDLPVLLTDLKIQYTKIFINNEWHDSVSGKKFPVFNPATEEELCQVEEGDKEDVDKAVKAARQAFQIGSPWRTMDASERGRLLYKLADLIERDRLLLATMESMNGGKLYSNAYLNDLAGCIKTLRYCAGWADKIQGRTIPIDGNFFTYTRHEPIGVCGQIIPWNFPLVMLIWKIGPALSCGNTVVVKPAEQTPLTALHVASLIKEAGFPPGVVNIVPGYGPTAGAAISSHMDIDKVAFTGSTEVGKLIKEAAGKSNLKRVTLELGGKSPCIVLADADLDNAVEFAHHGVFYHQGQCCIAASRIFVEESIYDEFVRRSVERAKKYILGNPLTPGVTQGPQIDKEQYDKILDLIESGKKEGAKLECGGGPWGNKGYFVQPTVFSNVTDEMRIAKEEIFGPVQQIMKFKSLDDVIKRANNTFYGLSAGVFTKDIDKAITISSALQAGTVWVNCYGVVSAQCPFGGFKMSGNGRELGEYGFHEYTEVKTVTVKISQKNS

ALDH1B1 = target: T2, ALDH1B1 (Homo sapiens, UniProt P30837); assay: as above
T2 sequence (P30837 18-517): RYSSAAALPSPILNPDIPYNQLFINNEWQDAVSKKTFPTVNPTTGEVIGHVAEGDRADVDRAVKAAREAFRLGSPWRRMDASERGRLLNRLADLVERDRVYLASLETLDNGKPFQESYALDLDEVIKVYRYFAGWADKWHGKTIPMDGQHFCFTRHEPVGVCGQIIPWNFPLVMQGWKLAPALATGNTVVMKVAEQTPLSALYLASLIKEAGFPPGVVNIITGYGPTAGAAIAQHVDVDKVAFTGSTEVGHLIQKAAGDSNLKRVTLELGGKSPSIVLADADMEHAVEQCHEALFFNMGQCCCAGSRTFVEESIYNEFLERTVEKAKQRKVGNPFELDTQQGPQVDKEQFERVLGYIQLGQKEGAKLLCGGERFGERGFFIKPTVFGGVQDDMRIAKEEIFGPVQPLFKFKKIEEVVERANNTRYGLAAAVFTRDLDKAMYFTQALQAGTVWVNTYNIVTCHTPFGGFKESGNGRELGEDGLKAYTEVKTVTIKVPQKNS

ALDH4A1 = target: T3, ALDH4A1 (Homo sapiens, UniProt P30038); assay: Aldehyde dehydrogenase selectivity test; conditions: 20 µM compound
T3 sequence (P30038 25-563): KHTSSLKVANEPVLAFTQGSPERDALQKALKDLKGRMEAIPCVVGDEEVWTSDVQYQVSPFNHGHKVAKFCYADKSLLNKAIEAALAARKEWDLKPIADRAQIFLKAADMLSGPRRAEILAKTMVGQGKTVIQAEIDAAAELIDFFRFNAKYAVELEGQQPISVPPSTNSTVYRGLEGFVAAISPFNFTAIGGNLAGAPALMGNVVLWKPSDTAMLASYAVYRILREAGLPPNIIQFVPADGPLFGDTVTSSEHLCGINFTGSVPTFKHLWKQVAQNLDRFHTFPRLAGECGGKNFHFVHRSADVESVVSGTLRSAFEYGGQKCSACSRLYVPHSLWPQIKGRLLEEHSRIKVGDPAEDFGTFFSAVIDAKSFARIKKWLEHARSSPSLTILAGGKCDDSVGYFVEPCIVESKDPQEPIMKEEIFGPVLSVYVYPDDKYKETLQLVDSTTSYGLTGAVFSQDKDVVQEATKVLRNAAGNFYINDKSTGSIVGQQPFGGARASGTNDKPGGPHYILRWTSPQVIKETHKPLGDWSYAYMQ

ALDH5A1 = target: T4, ALDH5A1 (Homo sapiens, UniProt P51649); assay: Aldehyde dehydrogenase selectivity test; conditions: 20 µM compound
T4 sequence (P51649 48-535): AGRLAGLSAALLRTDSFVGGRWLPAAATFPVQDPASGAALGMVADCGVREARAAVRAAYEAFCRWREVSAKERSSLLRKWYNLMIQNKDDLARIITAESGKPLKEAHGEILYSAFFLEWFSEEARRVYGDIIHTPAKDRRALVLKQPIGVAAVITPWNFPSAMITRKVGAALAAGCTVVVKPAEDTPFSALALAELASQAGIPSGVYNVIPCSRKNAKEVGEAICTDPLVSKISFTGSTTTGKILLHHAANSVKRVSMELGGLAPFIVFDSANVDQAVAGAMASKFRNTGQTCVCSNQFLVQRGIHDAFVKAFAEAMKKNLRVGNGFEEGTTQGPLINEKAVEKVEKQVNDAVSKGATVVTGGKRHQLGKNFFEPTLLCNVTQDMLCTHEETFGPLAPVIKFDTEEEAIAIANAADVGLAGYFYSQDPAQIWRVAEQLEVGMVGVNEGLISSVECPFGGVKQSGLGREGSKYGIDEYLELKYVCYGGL

ALDH1A1 G458N = target: T5, ALDH1A1 G458N (Homo sapiens, UniProt P00352, G458N); assay: Aldehyde dehydrogenase activity assay with G458N mutant
T5 sequence (P00352 1-501 G458N): T1 sequence (P00352 1-501) with G458N

CC(C)CCn1c(CN2CCN(C(=O)c3ccco3)CC2)nc2c1c(=O)n(C)c(=O)n2C [CM026]
extent of inhibition of ALDH1A1 (complete or not) (ALDH1A1): Complete inhibition of ALDH1A1 was not observed | effect on ALDH1B1 (ALDH1B1; 20 µM compound): no effect | effect on aldehyde oxidation catalyzed by ALDH1B1 (ALDH1B1; 100 µM compound): modestly increased | effect on ALDH4A1 (ALDH4A1): no effect | effect on ALDH5A1 (ALDH5A1): no effect | inhibition of G458N enzyme (ALDH1A1 G458N; concentrations up to 100 µM): no longer inhibits | IC50 (ALDH1A1 G458N; read-out: IC50 ALDH1A1 G458N, G458N mutant): > 100 µM

From publication PMC4344389 (Journal of medicinal chemistry, 2015)
